From ChEMBL document CHEMBL5696442, “Discovery of type II inhibitors of TGFβ-activated kinase 1 (TAK1) and mitogen-activated protein kinase kinase kinase kinase 2 (MAP4K2)” (J Med Chem, 2015) come the findings set out here.

Active and inactive are the calls of the source. The calls are words filed in the database; no cut-off is given here.

Assay [1] has as its target Dual specificity mitogen-activated protein kinase kinase 1 (Homo sapiens) (UniProt Q02750). The assay can be described thus: Inhibition of MAP2K1 Lys2 labeling site harbouring DVKPSNILVNSR in human Huh-7 cell lysate at 1 uM by KiNativ Profiling analysis relative to control. The assay is classed as subcellular.
The target of assay [2] is T1, Serine/threonine-protein kinase TAO3 (Homo sapiens) (UniProt Q9H2K8).
T1 sequence (whole entry): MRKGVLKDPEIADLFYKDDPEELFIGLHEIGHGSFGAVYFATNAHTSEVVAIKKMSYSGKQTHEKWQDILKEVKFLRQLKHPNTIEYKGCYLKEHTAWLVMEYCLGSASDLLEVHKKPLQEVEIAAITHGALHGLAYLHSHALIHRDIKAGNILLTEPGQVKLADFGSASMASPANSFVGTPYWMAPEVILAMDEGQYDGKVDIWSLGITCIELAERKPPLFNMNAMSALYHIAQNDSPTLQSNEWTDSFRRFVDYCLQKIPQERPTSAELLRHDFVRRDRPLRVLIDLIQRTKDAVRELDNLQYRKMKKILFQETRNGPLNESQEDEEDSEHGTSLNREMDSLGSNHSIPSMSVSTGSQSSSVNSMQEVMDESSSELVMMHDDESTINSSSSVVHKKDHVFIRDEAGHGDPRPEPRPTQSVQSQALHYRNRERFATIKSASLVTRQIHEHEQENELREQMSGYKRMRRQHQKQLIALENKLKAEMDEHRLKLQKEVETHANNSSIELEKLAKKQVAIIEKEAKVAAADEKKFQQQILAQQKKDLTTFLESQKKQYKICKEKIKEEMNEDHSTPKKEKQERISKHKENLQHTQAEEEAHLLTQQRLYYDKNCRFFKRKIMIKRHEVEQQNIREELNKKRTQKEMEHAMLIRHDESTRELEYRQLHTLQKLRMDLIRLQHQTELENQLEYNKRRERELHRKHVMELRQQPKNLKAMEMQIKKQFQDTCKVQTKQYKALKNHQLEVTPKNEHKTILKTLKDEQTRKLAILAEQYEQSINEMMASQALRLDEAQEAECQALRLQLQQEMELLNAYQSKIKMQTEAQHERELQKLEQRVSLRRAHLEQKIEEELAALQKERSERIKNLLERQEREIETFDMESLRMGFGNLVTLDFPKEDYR
The assay can be described thus: Inhibition of TAO3 Lys2 labeling site in human Huh-7 cell lysate at 1 uM by KiNativ Profiling analysis relative to control. It counts as subcellular.

In assay [3] the target is Mitogen-activated protein kinase kinase kinase 4 (Homo sapiens) (UniProt Q9Y6R4). As to the kind of experiment: Inhibition of MAP3K4 Lys2 labeling site in human Huh-7 cells at 1 uM by KiNativ Profiling analysis relative to control. It counts as cell-based.
Assay [4] concerns the target Putative phosphatidylinositol 4-kinase alpha-like protein P2 (Homo sapiens) (UniProt A4QPH2). As to the kind of experiment: Inhibition of PI4KAP2 ATP labeling site in human Huh-7 cells at 1 uM by KiNativ Profiling analysis relative to control. It counts as cell-based.
In assay [5] the target is Cyclin-dependent kinase 2 (Homo sapiens) (UniProt P24941). The assay can be described thus: Inhibition of CDK2 Lys1 labeling site in human A-375 cells at 0.5 uM by KiNativ Profiling analysis relative to control. It counts as cell-based.
The target in assay [6] is Serine/threonine-protein kinase Nek2 (Homo sapiens) (UniProt P51955). As to the kind of experiment: Inhibition of NEK2 (unknown origin) at 1 uM by Ambit Kinomescan binding assay relative to control; values are per cent of control.
Chain of Serine/threonine-protein kinase Nek2 (Homo sapiens) (P51955 whole entry): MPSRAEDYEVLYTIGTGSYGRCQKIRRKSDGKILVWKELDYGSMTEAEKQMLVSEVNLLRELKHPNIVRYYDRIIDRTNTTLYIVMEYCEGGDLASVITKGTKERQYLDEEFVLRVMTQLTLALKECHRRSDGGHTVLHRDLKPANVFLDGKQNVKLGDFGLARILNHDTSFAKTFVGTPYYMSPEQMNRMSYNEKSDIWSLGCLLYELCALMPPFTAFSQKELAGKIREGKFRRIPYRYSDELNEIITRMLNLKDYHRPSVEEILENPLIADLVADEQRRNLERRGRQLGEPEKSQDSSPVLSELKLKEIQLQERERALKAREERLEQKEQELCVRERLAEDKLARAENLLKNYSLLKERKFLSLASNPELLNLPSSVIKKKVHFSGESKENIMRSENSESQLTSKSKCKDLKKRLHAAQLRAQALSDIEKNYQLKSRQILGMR
Assay [7] deals with Tyrosine-protein kinase ABL1 (Homo sapiens), P00519 [F317L]. The assay can be described thus: Inhibition of phosphorylated ABL1 F317L mutant (unknown origin) at 1 uM by Ambit Kinomescan binding assay relative to control; values are per cent of control.
Chain of Tyrosine-protein kinase ABL1 (Homo sapiens), P00519 [F317L] (P00519 whole entry F317L, canonical isoform): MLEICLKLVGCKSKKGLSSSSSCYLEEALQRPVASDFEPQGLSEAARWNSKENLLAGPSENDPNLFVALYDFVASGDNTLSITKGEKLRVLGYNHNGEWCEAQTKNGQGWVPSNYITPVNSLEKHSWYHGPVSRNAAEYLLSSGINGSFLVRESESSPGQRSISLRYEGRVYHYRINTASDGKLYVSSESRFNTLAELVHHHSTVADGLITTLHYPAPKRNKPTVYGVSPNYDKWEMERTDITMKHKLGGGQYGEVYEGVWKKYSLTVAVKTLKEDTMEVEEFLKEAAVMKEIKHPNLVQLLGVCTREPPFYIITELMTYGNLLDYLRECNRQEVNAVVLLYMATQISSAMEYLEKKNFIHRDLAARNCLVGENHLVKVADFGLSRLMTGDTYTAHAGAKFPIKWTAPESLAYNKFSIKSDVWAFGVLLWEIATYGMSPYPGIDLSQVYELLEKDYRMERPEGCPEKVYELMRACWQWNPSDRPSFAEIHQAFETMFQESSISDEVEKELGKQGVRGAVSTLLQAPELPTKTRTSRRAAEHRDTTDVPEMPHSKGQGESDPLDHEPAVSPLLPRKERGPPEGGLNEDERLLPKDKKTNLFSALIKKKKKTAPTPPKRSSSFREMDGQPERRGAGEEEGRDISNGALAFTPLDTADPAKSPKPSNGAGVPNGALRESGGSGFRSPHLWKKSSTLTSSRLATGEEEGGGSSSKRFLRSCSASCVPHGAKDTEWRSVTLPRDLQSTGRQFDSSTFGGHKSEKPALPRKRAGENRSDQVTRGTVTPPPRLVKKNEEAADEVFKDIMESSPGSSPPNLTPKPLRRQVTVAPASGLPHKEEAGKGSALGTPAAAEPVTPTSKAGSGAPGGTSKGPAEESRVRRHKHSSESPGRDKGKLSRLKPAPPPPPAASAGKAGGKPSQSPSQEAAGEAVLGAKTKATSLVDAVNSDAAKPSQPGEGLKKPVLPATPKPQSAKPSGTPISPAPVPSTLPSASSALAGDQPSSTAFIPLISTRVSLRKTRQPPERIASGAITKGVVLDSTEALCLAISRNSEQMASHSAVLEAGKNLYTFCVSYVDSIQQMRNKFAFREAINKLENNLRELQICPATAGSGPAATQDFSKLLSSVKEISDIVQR
Assay [8] deals with Casein kinase I isoform gamma-2 (Homo sapiens) (UniProt P78368). As to the kind of experiment: Inhibition of CSNK1G2 (unknown origin) at 10 uM by Ambit Kinomescan binding assay.
Chain of Casein kinase I isoform gamma-2 (Homo sapiens) (P78368 whole entry, looked up, canonical isoform): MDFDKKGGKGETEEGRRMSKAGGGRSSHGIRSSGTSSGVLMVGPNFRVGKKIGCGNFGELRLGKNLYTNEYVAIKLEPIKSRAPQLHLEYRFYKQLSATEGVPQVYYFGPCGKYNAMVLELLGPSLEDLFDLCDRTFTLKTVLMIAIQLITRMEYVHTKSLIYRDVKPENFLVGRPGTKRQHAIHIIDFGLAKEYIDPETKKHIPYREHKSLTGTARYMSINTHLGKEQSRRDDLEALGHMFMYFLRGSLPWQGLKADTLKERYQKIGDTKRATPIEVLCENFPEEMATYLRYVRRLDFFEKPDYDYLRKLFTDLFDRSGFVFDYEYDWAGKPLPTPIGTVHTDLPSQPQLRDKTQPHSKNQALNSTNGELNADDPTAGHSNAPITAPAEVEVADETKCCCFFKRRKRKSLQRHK
Assay [9] concerns the target Mitogen-activated protein kinase kinase kinase kinase 4 (Homo sapiens, UniProt O95819). As to the kind of experiment: Inhibition of ZC1/HGK Lys2 labeling site in human A-375 cells at 5 uM by KiNativ Profiling analysis relative to control. The assay is classed as cell-based.
The target in assay [10] is Tyrosine-protein kinase ABL2 (Homo sapiens, UniProt P42684). The assay can be described thus: Inhibition of ARG ACT labeling site in human A-375 cells at 0.05 uM by KiNativ Profiling analysis relative to control. The assay is classed as cell-based.
Chain of Tyrosine-protein kinase ABL2 (P42684 whole entry): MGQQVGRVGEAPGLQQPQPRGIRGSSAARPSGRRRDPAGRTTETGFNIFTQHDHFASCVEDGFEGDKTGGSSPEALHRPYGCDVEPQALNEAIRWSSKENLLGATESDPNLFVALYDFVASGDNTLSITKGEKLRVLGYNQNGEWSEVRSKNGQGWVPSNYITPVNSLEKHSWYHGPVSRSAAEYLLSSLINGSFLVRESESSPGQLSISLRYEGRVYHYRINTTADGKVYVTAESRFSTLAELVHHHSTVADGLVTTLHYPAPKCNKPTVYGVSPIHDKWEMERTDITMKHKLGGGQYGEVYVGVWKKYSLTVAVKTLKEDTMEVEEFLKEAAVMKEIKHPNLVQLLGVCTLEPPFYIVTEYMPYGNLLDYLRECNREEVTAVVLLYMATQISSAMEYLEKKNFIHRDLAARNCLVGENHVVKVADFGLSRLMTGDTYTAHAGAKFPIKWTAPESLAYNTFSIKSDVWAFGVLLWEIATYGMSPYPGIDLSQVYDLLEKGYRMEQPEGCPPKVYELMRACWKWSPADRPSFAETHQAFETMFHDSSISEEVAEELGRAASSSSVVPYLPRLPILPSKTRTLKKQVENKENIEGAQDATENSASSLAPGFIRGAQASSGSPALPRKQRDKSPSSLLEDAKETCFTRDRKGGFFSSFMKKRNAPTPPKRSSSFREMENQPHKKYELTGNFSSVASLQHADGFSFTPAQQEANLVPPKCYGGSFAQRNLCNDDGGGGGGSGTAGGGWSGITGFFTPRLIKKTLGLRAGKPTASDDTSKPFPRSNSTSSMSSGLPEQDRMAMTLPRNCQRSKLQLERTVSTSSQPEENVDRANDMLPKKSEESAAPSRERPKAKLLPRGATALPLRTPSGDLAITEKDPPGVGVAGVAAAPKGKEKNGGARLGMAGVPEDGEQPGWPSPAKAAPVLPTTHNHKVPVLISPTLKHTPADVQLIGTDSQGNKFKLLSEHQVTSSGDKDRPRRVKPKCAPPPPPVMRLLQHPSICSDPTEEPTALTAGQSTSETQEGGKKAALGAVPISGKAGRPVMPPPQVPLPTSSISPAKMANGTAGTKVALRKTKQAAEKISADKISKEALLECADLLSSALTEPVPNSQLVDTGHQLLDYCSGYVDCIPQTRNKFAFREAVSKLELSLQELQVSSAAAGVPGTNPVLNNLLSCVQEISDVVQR
For assay [11], the target named is T2, Scaffold protein ILK (Homo sapiens) (UniProt Q13418).
T2 sequence (whole entry): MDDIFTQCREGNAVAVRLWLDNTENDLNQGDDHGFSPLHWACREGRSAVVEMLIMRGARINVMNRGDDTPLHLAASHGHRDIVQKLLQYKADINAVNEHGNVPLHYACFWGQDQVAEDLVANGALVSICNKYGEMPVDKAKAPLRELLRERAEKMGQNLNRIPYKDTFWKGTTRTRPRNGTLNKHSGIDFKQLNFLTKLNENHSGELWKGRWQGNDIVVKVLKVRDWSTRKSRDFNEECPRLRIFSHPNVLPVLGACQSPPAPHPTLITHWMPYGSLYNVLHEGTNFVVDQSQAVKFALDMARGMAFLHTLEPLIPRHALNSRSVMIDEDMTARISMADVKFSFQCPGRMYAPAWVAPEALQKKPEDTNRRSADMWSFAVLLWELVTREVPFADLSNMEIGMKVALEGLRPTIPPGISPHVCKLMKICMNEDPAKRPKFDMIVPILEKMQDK
As to the kind of experiment: Inhibition of ILK ACT labeling site in human Huh-7 cells at 10 uM by KiNativ Profiling analysis relative to control. The assay is classed as cell-based.

Assay [12] has as its target T3, Dual specificity mitogen-activated protein kinase kinase 4 (Homo sapiens) (UniProt P45985).
T3 sequence (whole entry): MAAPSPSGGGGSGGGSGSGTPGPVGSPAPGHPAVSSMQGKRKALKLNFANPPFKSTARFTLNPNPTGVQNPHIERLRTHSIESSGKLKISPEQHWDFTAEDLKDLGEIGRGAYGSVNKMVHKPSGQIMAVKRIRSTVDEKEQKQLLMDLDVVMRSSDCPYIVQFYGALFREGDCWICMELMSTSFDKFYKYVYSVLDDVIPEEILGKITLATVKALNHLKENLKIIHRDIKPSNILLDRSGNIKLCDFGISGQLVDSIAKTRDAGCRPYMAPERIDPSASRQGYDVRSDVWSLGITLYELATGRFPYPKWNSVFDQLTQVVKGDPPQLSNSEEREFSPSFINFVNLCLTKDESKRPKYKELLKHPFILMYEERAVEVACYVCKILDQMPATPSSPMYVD
As to the kind of experiment: Inhibition of MAP2K4 K2 labeling site harbouring DIKPSNILLDR in human Huh-7 cells at 10 uM by KiNativ Profiling analysis relative to control. The assay is classed as cell-based.

The target of assay [13] is DNA-dependent protein kinase catalytic subunit (Homo sapiens) (UniProt P78527). As to the kind of experiment: Inhibition of PRKDC ATP labeling site harbouring KGGSWIQEINVAEK in human Huh-7 cells at 1 uM by KiNativ Profiling analysis relative to control. It counts as cell-based.

Chain of Dual specificity mitogen-activated protein kinase kinase 1 (Homo sapiens) (Q02750 whole entry): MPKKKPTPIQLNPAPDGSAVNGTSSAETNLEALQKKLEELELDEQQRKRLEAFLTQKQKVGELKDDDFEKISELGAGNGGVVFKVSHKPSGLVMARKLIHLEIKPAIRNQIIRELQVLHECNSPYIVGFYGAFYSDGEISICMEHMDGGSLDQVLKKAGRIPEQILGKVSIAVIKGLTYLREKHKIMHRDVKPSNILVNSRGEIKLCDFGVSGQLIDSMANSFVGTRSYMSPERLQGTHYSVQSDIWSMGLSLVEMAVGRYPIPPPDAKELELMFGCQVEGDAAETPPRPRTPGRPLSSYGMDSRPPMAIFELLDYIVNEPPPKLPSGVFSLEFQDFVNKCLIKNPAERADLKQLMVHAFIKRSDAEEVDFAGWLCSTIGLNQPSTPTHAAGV
Chain of Mitogen-activated protein kinase kinase kinase kinase 4 (O95819 2-1239 limits assumed): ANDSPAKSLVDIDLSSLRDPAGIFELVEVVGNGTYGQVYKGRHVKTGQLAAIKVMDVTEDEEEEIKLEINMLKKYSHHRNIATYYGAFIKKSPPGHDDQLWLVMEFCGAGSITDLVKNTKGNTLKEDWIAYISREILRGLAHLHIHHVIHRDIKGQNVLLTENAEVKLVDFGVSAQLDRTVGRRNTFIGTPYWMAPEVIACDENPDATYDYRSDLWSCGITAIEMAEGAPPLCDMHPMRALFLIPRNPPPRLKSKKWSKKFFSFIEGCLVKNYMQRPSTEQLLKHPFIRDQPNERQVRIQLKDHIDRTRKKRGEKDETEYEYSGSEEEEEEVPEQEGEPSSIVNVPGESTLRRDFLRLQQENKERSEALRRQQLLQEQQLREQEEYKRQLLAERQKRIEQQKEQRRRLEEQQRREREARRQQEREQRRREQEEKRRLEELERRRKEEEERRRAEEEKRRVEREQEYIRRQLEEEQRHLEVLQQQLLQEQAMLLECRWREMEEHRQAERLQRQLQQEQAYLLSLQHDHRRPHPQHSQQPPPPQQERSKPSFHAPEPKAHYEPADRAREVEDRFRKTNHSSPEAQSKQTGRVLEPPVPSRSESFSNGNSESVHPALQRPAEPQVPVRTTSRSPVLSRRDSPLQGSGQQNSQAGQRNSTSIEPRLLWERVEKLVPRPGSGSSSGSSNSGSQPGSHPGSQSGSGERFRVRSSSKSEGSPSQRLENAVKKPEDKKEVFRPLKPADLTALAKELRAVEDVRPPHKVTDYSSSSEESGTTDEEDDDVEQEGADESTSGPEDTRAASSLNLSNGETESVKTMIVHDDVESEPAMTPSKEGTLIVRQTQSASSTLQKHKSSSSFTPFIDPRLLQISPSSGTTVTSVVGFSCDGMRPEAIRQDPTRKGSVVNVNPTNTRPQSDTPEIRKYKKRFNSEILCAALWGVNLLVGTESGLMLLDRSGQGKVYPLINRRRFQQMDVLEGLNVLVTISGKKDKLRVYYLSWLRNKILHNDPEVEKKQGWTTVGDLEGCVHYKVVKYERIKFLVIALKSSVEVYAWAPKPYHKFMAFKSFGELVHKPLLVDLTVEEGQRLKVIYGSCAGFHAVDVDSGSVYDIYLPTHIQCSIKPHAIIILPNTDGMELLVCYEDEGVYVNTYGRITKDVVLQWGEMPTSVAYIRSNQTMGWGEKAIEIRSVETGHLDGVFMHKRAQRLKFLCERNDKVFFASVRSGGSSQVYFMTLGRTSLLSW

In the case of `CNc1cc(Oc2cc(C(=O)Nc3cc(N4CCN(C)CC4)cc(C(F)(F)F)c3)ccc2C)ncn1`, the inhibition in assay [1] is 15.6%; in assay [2], -1.2%; in assay [3], 77%; in [4] it was 29.8%.

Regarding `CCN1CCN(Cc2ccc(NC(=O)c3ccc(C)c(/C=C/c4cnc5[nH]ccc5c4OC)c3)cc2C(F)(F)F)CC1`, the inhibition in [5] stood at 20.7%. The residual activity in assay [6] stood at 100%. This molecule also came in with a percent of control in assay [7] of 3.4%.

On to `CCN1CCN(Cc2ccc(NC(=O)c3ccc(C)c(Oc4ccnc5[nH]ccc45)c3)cc2C(F)(F)F)CC1`, for which the inhibition entry in assay [8] was “inactive”. Also, the inhibition was 92.7% in assay [9]; 88.5% in [10]; -1.1% in assay [11]; -4.6% in assay [12]; 0.9% in assay [13].

In general, inhibition refers to the change of the read-out against control, counted positive when it falls. The residual activity is the share of the control activity or signal that is left under treatment.
